The nature of series [1]: Oral bioavailability in rat. The class given is ADME, organism-based. The conditions noted are these: in vivo.
Series [2] can be described thus: Half life in iv dosed rat. The class given is ADME, organism-based. The note with it: in vivo.

By bioavailability is commonly meant dose-corrected exposure relative to a reference, in per cent. Higher therefore signals much systemic uptake. One may read the half-life as the time needed for the level to fall by half in the phase considered. Low values mean fast loss, high ones slow loss.

In series [1], `CCCN(CCC)CCCCN(C)Cc1ccc(CN(Cc2ncc[nH]2)Cc2nccn2C)cc1` displayed a bioavailability of 21%. In series [2], this compound showed a half-life of 99 h.
